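96-well plates; 48 h exposure; 5 concentrations. Endpoints by linear interpolation between flanking doses. Not reached: highest tested concentration assigned. GI50: concentration for 50% inhibition of growth. The concentration for full growth arrest is given as TGI.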
Legend:
Assay in all cases: inhibition of tumour cell growth, NCI panel, 48 h
786-0 renal = tested on: 786-0 renal
A498 renal = tested on: A498 renal
A549 NSCLC = tested on: A549 NSCLC
ACHN renal = tested on: ACHN renal
BT-549 breast = tested on: BT-549 breast
CAKI-1 renal = tested on: CAKI-1 renal
CCRF-CEM leukemia = tested on: CCRF-CEM leukemia
COLO 205 colon = tested on: COLO 205 colon
DU-145 prostate = tested on: DU-145 prostate
EKVX NSCLC = tested on: EKVX NSCLC
HCC-2998 colon = tested on: HCC-2998 colon
HCT-116 colon = tested on: HCT-116 colon
HCT-15 colon = tested on: HCT-15 colon
HL-60(TB) leukemia = tested on: HL-60(TB) leukemia
HOP-62 NSCLC = tested on: HOP-62 NSCLC
HT29 colon = tested on: HT29 colon
IGROV1 ovarian = tested on: IGROV1 ovarian
K-562 leukemia = tested on: K-562 leukemia
KM12 colon = tested on: KM12 colon
LOX IMVI melanoma = tested on: LOX IMVI melanoma
M14 melanoma = tested on: M14 melanoma
MALME-3M melanoma = tested on: MALME-3M melanoma
MCF7 breast = tested on: MCF7 breast
MDA-MB-231 breast = tested on: MDA-MB-231 breast
MDA-MB-435 = tested on: MDA-MB-435
MOLT-4 leukemia = tested on: MOLT-4 leukemia
NCI-H226 lung = tested on: NCI-H226 lung
NCI-H23 lung = tested on: NCI-H23 lung
NCI-H460 lung = tested on: NCI-H460 lung
NCI-H522 lung = tested on: NCI-H522 lung
NCI/ADR-RES ovarian = tested on: NCI/ADR-RES ovarian
OVCAR-3 ovarian = tested on: OVCAR-3 ovarian
OVCAR-4 ovarian = tested on: OVCAR-4 ovarian
OVCAR-5 ovarian = tested on: OVCAR-5 ovarian
OVCAR-8 ovarian = tested on: OVCAR-8 ovarian
PC-3 prostate = tested on: PC-3 prostate
RPMI-8226 leukemia = tested on: RPMI-8226 leukemia
SF-268 CNS = tested on: SF-268 CNS
SF-295 CNS = tested on: SF-295 CNS
SF-539 CNS = tested on: SF-539 CNS
SK-MEL-2 melanoma = tested on: SK-MEL-2 melanoma
SK-MEL-28 melanoma = tested on: SK-MEL-28 melanoma
SK-MEL-5 melanoma = tested on: SK-MEL-5 melanoma
SK-OV-3 ovarian = tested on: SK-OV-3 ovarian
SN12C renal = tested on: SN12C renal
SNB-19 CNS = tested on: SNB-19 CNS
SNB-75 CNS = tested on: SNB-75 CNS
SR leukemia = tested on: SR leukemia
SW-620 colon = tested on: SW-620 colon
T-47D breast = tested on: T-47D breast
TK-10 renal = tested on: TK-10 renal
U251 CNS = tested on: U251 CNS
UACC-257 melanoma = tested on: UACC-257 melanoma
UACC-62 melanoma = tested on: UACC-62 melanoma
UO-31 renal = tested on: UO-31 renal

## CS(=O)(=O)Nc1cc(-c2ccc3ncnc(Nc4ccc(OCc5ccccn5)c(Cl)c4)c3c2)cnc1Cl
786-0 renal
  GI50: 0.804 µM
  TGI: > 100 µM
A498 renal
  GI50: 0.155 µM
  TGI: 0.641 µM
A549 NSCLC
  GI50: 1.09 µM
  TGI: 5.48 µM
ACHN renal
  GI50: 1.02 µM
  TGI: > 100 µM
BT-549 breast
  GI50: 0.14 µM
  TGI: 1.23 µM
CAKI-1 renal
  GI50: 1.09 µM
  TGI: 3.66 µM
CCRF-CEM leukemia
  GI50: 0.217 µM
  TGI: > 100 µM
COLO 205 colon
  GI50: 0.316 µM
  TGI: 1.85 µM
DU-145 prostate
  GI50: 0.52 µM
  TGI: > 100 µM
EKVX NSCLC
  GI50: 0.313 µM
  TGI: 3.46 µM
HCC-2998 colon
  GI50: 1.13 µM
  TGI: 3.31 µM
HCT-116 colon
  GI50: 0.648 µM
  TGI: > 100 µM
HCT-15 colon
  GI50: 1.13 µM
  TGI: > 42 µM
HL-60(TB) leukemia
  GI50: 0.23 µM
  TGI: 2.72 µM
HOP-62 NSCLC
  GI50: 0.646 µM
  TGI: > 100 µM
HT29 colon
  GI50: 0.456 µM
  TGI: 38.5 µM
IGROV1 ovarian
  GI50: 0.0748 µM
  TGI: 0.409 µM
K-562 leukemia
  GI50: 1.29 µM
  TGI: > 100 µM
KM12 colon
  GI50: 0.572 µM
  TGI: 2.18 µM
LOX IMVI melanoma
  GI50: 0.268 µM
  TGI: 1.92 µM
M14 melanoma
  GI50: 0.486 µM
MALME-3M melanoma
  GI50: 0.0851 µM
  TGI: 0.736 µM
MCF7 breast
  GI50: 0.185 µM
  TGI: > 100 µM
MDA-MB-231 breast
  GI50: 0.313 µM
  TGI: 2.03 µM
MDA-MB-435
  GI50: 0.376 µM
  TGI: 2.78 µM
MOLT-4 leukemia
  GI50: 0.223 µM
  TGI: 0.75 µM
NCI-H226 lung
  GI50: 0.549 µM
  TGI: 11 µM
NCI-H23 lung
  GI50: 0.381 µM
  TGI: > 100 µM
NCI-H460 lung
  GI50: 0.502 µM
  TGI: > 100 µM
NCI-H522 lung
  GI50: 0.131 µM
  TGI: 2.35 µM
NCI/ADR-RES ovarian
  GI50: 7.07 µM
  TGI: > 100 µM
OVCAR-3 ovarian
  GI50: 0.217 µM
  TGI: 1.41 µM
OVCAR-4 ovarian
  GI50: 1.49 µM
  TGI: > 100 µM
OVCAR-5 ovarian
  GI50: 0.325 µM
  TGI: 4.58 µM
OVCAR-8 ovarian
  GI50: 1.36 µM
  TGI: 26.8 µM
PC-3 prostate
  GI50: 0.349 µM
  TGI: > 100 µM
RPMI-8226 leukemia
  GI50: 0.286 µM
  TGI: 1.03 µM
SF-268 CNS
  GI50: 0.429 µM
  TGI: > 100 µM
SF-295 CNS
  GI50: 0.526 µM
  TGI: 4.75 µM
SF-539 CNS
  GI50: 0.31 µM
  TGI: 2.38 µM
SK-MEL-2 melanoma
  GI50: 0.184 µM
  TGI: 0.739 µM
SK-MEL-28 melanoma
  GI50: 0.256 µM
  TGI: 3.92 µM
SK-MEL-5 melanoma
  GI50: 0.214 µM
  TGI: 0.68 µM
SK-OV-3 ovarian
  GI50: 0.21 µM
  TGI: 1.16 µM
SN12C renal
  GI50: 0.35 µM
  TGI: > 100 µM
SNB-19 CNS
  GI50: 0.449 µM
  TGI: > 100 µM
SNB-75 CNS
  GI50: 0.0438 µM
  TGI: 0.797 µM
SR leukemia
  GI50: 0.374 µM
  TGI: 2.77 µM
SW-620 colon
  GI50: 0.448 µM
  TGI: 10.5 µM
T-47D breast
  GI50: 0.0258 µM
  TGI: 0.217 µM
TK-10 renal
  GI50: 0.23 µM
  TGI: 1.78 µM
U251 CNS
  GI50: 0.316 µM
  TGI: 2.31 µM
UACC-257 melanoma
  GI50: 0.378 µM
  TGI: 7.1 µM
UACC-62 melanoma
  GI50: 0.264 µM
  TGI: 1.58 µM
UO-31 renal
  GI50: 0.337 µM
  TGI: 3.86 µM
